Results taken from PubChem BioAssay (NCI).
Where “and” joins values, the source holds several entries; their conditions need not be identical. Equal values may be shown once.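 Interpolation was linear, between the two tested concentrations surrounding the appropriate level; five concentrations were tested over 48 hours in 96-well plates. GI50: concentration for 50% inhibition of growth. TGI: total growth inhibition.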

What was measured:
Assay in all cases: NCI-60 cell line screen, 48 h
[1] = tested on: A549 NSCLC
[2] = tested on: ACHN renal
[3] = tested on: HCT-116 colon
[4] = tested on: HOP-62 NSCLC
[5] = tested on: OVCAR-8 ovarian
[6] = tested on: SF-268 CNS
[7] = tested on: SF-295 CNS
[8] = tested on: SK-OV-3 ovarian
[9] = tested on: SR leukemia
[10] = tested on: TK-10 renal

Row | Structure (SMILES) | GI50 [1] [µM] | TGI [1] | GI50 [2] [µM] | TGI [2] | GI50 [3] [µM] | TGI [3] | GI50 [4] [µM] | TGI [4] | GI50 [5] [µM] | TGI [5] | GI50 [6] [µM] | TGI [6] | TGI [7] [µM] | GI50 [8] [µM] | TGI [8] | GI50 [9] [µM] | TGI [9] [µM] | GI50 [10] [µM] | TGI [10] | GI50 [7] [µM]
1 | C[C@H](N)C(=O)N[C@@H]1[C@H]2C(=C(O)C[C@@H](O)[C@@H]2O)C(=O)O[C@]1(C)C(Cl)Cl | 0.271 | 4.92 µM and 2.81 µM | 0.309 | 5.21 µM and 1.58 µM | 0.205 | 1.85 µM and 1.33 µM | 0.297 | 1.85 µM and 1.29 µM | 0.255 | 3.12 µM and 1.18 µM | 0.15 | 2.8 µM and 2.59 µM | 1.31 | 0.2 | 2.25 µM and 1.95 µM | 0.255 | 7.55 | 0.685 | 6.92 µM and 2.06 µM | 
2 | C/C1=C/C(=O)O[C@@H]2C[C@@H](CC[C@H](C)/C=C\C=C\CC1)O[C@@](O)([C@@H]1CSC(=O)N1CO)C2 | 0.0465 | > 46 µM | 0.0403 | > 100 µM | 0.194 | 20 µM | 0.0254 | 0.176 µM | 1.6 | 74.6 µM | 0.0418 | 0.198 µM | 20.5 | 0.0504 | 0.404 µM | 0.154 | 16 | 0.0921 | 0.341 µM | 0.0414
3 | COc1cc(-c2nc(NC(C)=O)sc2-c2ccnc(NCCNS(=O)(=O)c3ccccc3)n2)ccc1Cl | 4.5 | > 100 µM | 3.1 | > 100 µM | 3.17 | 35.7 µM | 6.78 | > 100 µM | 5.21 | > 100 µM | 4.25 | > 100 µM | 13.4 | 4.77 | > 100 µM | 2.3 | > 100 | 6.33 | > 100 µM | 2.74
4 | CCOC(=O)Cc1nc2ccccc2s1 |  | 54.2 µM |  | 32.1 µM |  | 39 µM |  | 52 µM |  | 32.8 µM |  | 39.2 µM | 32.2 |  | > 100 µM |  | 48.9 |  | 55 µM | 
5 | O=C(O)C1=C(C(=O)Nc2ccccc2)C2C=CC1C2 (stereo unspecified) |  | > 100 µM |  | > 100 µM |  | > 100 µM |  | > 100 µM |  | > 100 µM |  | > 100 µM | > 100 |  | > 100 µM |  | > 100 |  | > 100 µM | 
6 | CC(C)CC1C(=O)N2CCC[C@H]2C2(O)O[C@](NC(=O)C3C=C4c5cccc6[nH]c(Br)c(c56)C[C@H]4N(C)C3)(C(C)C)C(=O)N12 (stereo partly specified) | 4.72 | > 100 µM | 8.9 | > 100 µM |  | > 100 µM |  | > 100 µM |  | > 100 µM | 9.02 | > 100 µM | > 100 | 9.66 | > 100 µM | 33.7 | > 100 | 5.06 | > 100 µM | 5.3
7 | C#Cc1c(C)c(/C=C/C(C)=C/C=C/C(C)=C/C(=O)OC)n(C)c1C |  | > 100 µM |  | > 100 µM |  | > 100 µM |  | > 100 µM |  | > 100 µM |  | > 100 µM | > 100 |  | > 100 µM |  | > 100 |  | > 100 µM | 
